The text below walks through data of patent USRE39300E1, “Inhibiting the development of tolerance to and/or dependence on an addictive substance” (Virginia Commonwealth University Medical College of Virginia, priority 1993, dated 2006).

Series [1] relates to Sprague-Dawley rats. The series can be described thus: Development of morphine tolerance with systemic treatment, tail-flick test. In kind it is in vivo, rat. Conditions: for inhibition of the development of morphine tolerance: FIG. 6. A general note: Hot-plate and tail-flick tests time the reaction to a heat stimulus.
For series [2], the system named is rats. Description: Health observations (death, grooming, weight loss) during the morphine tolerance experiment. Particulars: for overall toxicity: conclusion of Example 4; for rats that died due to drug administration: GM1 or dextrorphan treatment groups; for grooming and weight: ganglioside GM1 or dextrorphan treatment groups.
In series [3] the test system is rats. The series can be described thus: Development of morphine tolerance with intrathecal treatment, tail-flick test. In kind it is in vivo, rat. Particulars: for analgesic effect of morphine (tail-flick latency) on day 8: 100 or 50 nmol intrathecal immediately before each morphine 10 μg; for dose relation of the prevention of morphine tolerance: intrathecal; for prevention of the development of morphine tolerance: intrathecal administration immediately before each once daily intrathecal morphine sulfate 10 μg, FIGS. 7-10. How it is done:
Morphine sulfate 10 μg was delivered once daily through an intrathecal (spinal) canula implanted 5 days before the first morphine injection. Ganglioside GM1 or saline also was delivered intrathecally 30 minutes before each morphine injection.
Intrathecal ganglioside GM1 was given 30 min before each morphine administration. […] Vertical bars are standard errors. Maximal possible effects (MPE) were calculated by the formula % MPE=[(TL−BL)/(10−BL)]×100. TL: actual tail-flick latency; BL: baseline latency obtained before the first morphine injection; 10: cut-off time for radiant heat stimulation.
Calmodulin is an intracellular colactor necessary for the nitric oxide pathway that can be initiated upon NMDA receptor activation. […] Each data point in FIGS. 7-10 represents the mean of a group of rats (n=6) and standard errors are shown by vertical lines. The asterisks refer to statistical differences (α=0.05) between the saline group and each other group.

Series [4] deals with Sprague-Dawley rats. Description: Naloxone-produced jumping (withdrawal symptom) in morphine-treated rats. In kind it is in vivo, rat.

Consider `C[C@]12N[C@H](Cc3ccccc31)c1ccccc12` [MK 801, 5-methyl-10,11-dihydro-SH-dibenzo[a,d]cyclohepten-5,10-imine], for which, in series [1] (MK 801 0.3 mg/kg), the “inhibition of the development of morphine tolerance” value is reported as “inhibited the development of morphine tolerance”. In addition, the “rats that died before the completion of the experiment” value in series [2] (0.3 mg/kg, 3 out of 6) amounted to 50%. Also, the “grooming and weight of the remaining rats” value in series [2] (MK 801 0.3 mg/kg) is “apparently poor grooming and weight loss”. The overall toxicity result in series [2] is recorded as “severe cytotoxic effects”.

Regarding `CN1CCN(CCCN2c3ccccc3Sc3ccc(C(F)(F)F)cc32)CC1` [TFP, trifluoperazine], in series [3], the “analgesic effect of morphine (tail-flick latency) on day 8” value was “showed a reliable analgesic effect of morphine”, the “dose relation of the prevention of morphine tolerance” value is given as 100=50 nmol>25=12.5 nmol and the “prevention of the development of morphine tolerance” value is on record as “effectively prevent the development of morphine tolerance”.

Consider `Cl.NCCCCCCNS(=O)(=O)c1cccc2c(Cl)cccc12` [W-7, N-(6-aminohexyl)-5-chloro-1-naphthalenesulfonamide hydrochloride], for which, in series [3], the “analgesic effect of morphine (tail-flick latency) on day 8” value was “showed a reliable analgesic effect of morphine”, the “dose relation of the prevention of morphine tolerance” value is reported as 100=50 nmol>25=12.5 nmol and the “prevention of the development of morphine tolerance” value is “effectively prevent the development of morphine tolerance”.

`CN1CC[C@]23CCCC[C@H]2[C@H]1Cc1ccc(O)cc13` [dextrorphan, (+)-3-hydroxy-N-methylmorphinan]: in series [1] (coadministration of dextrorphan with morphine), the “analgesic effect of the morphine on coadministration” value was “remains substantially unaffected”. In addition, the “prevention of the development of morphine tolerance (tail-flick latency)” value in series [1] (dextrorphan 1.56, 3.13, 6.25, 12.5 mg/kg i.p. 30 min prior to each morphine 10 mg/kg s.c. twice daily, vs saline control, FIG. 1) was “potently prevented the development of morphine tolerance”. Further, the “incidence of jumping after naloxone 2 mg/kg s.c.” value in series [4] (dextrorphan 3.13 and 6.25 mg/kg, morphine 10 mg/kg twice daily for 9 days, vs MOR+SAL, FIG. 2) was “significantly reduced the incidence of jumping”. Further, in series [2], the “rats that died due to drug administration” value was “None”; the overall toxicity entry is “nontoxic”; the grooming and weight entry was “continued to appear well groomed and did not show weight loss”.

Consider `CN1CC[C@]23c4c5ccc(O)c4O[C@H]2[C@@H](O)C=C[C@H]3[C@H]1C5.O=S(=O)(O)O` [morphine, morphine sulfate], for which the “post-drug tail-flick latency scores” value in series [1] (measured 1 hour after drug administration, first 5 days of daily administration, morphine 10 mg/kg s.c. twice daily, baseline 4-5 seconds) is about 10 s. The “response to morphine (tolerance), control group” value in series [1] (morphine 10 mg/kg s.c. twice daily + saline, at 7 and 9 days) is “marked reduction in response to morphine”; in series [3] (once daily intrathecal morphine 10 μg + saline, Day 8, each tested time point), “marked reduction in response to morphine”. Also, in series [3] (once daily intrathecal morphine sulfate 10 μg and saline for 7 consecutive days), the “tolerance to the analgesic effect (tail-flick latencies vs baseline, day 1)” value is on record as “developed tolerance to the analgesic effect or morphine”.

For ganglioside GM1, the “inhibition of the development of morphine tolerance” value in series [1] (ganglioside GM1 60 mg/kg) is “inhibited the development of morphine tolerance to the degree equivalent to that induced by 0.3 mg/kg MK 801”. The “tail flick latency versus saline-treated rats” value in series [1] (ganglioside GM1 10, 30, 60 mg/kg systemic, 1 hour before each morphine, days 5, 7, 9 and 10 of repeated morphine, FIG. 3) is reported as “remained significantly longer than that of saline-treated rats”. The “comparison of doses for prevention of morphine tolerance” value in series [1] (ganglioside GM1 systemic, 10, 30, 60 mg/kg, FIG. 3) was 30 and 60 mg/kg were more effective at days 9 and 10 than 10 mg/kg. Also, the “number of jumps after naloxone 2 mg/kg s.c.” value in series [4] (GM1 10, 30 and 60 mg/kg systemic, morphine 10 mg/kg twice daily for 9 days, vs MOR+SAL, FIG. 4) is listed as “effective”. For the same compound, the “most effective dose tested against naloxone-produced jumping” value in series [4] (GM1 systemic, doses 10, 30, 60 mg/kg) is 60 mg/kg. For the same compound, the “prevention of morphine tolerance (maximal possible effects, % MPE)” value in series [3] (intrathecal ganglioside GM1 30 min before each once daily intrathecal morphine 10 μg, Day 8, 15-240 minutes after morphine, vs saline, FIG. 5) is recorded as “effectively prevented the development of morphine tolerance”. Also, the “order of doses, maximal possible analgesia effects of morphine” value in series [3] (intrathecal ganglioside GM1, Day 8) is recorded as 160 nmol>80=40 nmol. Also, in series [2], the “rats that died due to drug administration” value was “None”; the overall toxicity result is “nontoxic”; the grooming and weight result is “continued to appear well groomed and did not show weight loss”.
